# Tests used:
# Assay type in all cases: in vivo
# [1] = system: barnyardgrass (Echinochloa crus-galli); assay: Test E pre-/postemergence/post directed; design: key: 0 is no injury; 100 is complete control; conditions: PREEMERGENCE
# Summary of the method: (§1)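 Greenhouse pots; compound in non-phytotoxic solvent with surfactant, sprayed preemergence within one day of planting, postemergence at two to four leaf stage (three to twenty cm), or post directed to plant base and soil. Visual injury rated 13 to 21 days after application, 0 (none) to 100 (complete control).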
# [2] = system: sugarcane (Saccharum officinarum); assay: Test E pre-/postemergence/post directed; design: key: 0 is no injury; 100 is complete control
# Summary of the method: as §1
# kochia (Kochia scoparia) = assay: Test E pre-/postemergence/post directed; design: key: 0 is no effect; 100 is complete control; conditions: PREEMERGENCE
# Summary of the method: as §1
# [3] = system: Russian thistle (Salsola kali); assay: Test D; conditions: POSTEMERGENCE
# Summary of the method: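 Scores on a 0 to 100 scale, where 0 means no effect and 100 complete control, come from visual comparison with untreated controls roughly 21 to 28 days after treatment. Postemergence application is to 1- to 4-leaf plants.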
# [4] = system: field violet (Viola arvensis); assay: Test D; design: key: 0 is no effect; 100 is complete control; conditions: POSTEMERGENCE
# Procedure: Compounds evaluated in this test were formulated in a non-phytotoxic solvent mixture which included a surfactant and applied to plants that were in the 1- to 4-leaf stage (postemergence application). A mixture of sandy loam soil and greenhouse potting mix in a 60:40 ratio was used for the postemergence test.
# Plantings of these crops and weed species were adjusted to produce plants of appropriate size for the postemergence test. All plant species were grown using normal greenhouse practices. Crop and weed species include alfalfa (Medicago sativa), annual bluegrass (Poa annua), blackgrass (Alopecurus myosuroides), black nightshade (Solanum nigra), chickweed (Stellaria media), common poppy (Papaver rhoeas), deadnettle (Lamium amplexicaule), downy brome (Bromus tectorum), field violet (Viola arvensis), galium 2 (Galium aparine), green foxtail (Setaria viridis), Italian ryegrass (Lolium multiflorum), jointed goatgrass (Aegilops cylindrica), kochia (Kochia scoparia), lambsquarters (Chenopodium album), lentil (Lens culinaris), littleseed canarygrass (Phalaris minor), pea (Pisum sativum), potato (Solanum tuberosum), rape (Brassica napus), redroot pigweed (Amaranthus retroflexus), Russian thistle (Salsola kali), scentless chamomile (Matricaria inodora), sorghum (Sorghum vulgare), spring barley (Hordeum vulgare), sugar beet (Beta vulgaris), sunflower (Helianthus annuus), ivyleaf speedwell (Veronica hederaefolia), spring wheat (Triticum aestivum), winter wheat (Triticum aestivum), wild buckwheat (Polygonum convolvulus), wild mustard (Sinapis arvensis), wild oat (Avena fatua), windgrass (Apera spica-venti) and winter barley (Hordeum vulgare).
# Treated plants and untreated controls were maintained in a greenhouse for approximately 21 to 28 days, after which all treated plants were compared to untreated controls and visually evaluated. Plant response ratings, summarized in Table D, are based upon a 0 to 100 scale where 0 is no effect and 100 is complete control. A dash response (−) means no test result.
# [5] = system: sunflower (Helianthus annuus); assay: Test D; design: key: 0 is no effect; 100 is complete control; conditions: PREEMERGENCE
# [6] = system: spring wheat (Triticum aestivum); assay: Test D; design: key to Plant response rating, Spring Wheat: 0 is no effect; conditions: PREEMERGENCE
# [7] = system: downy brome (Bromus tectorum); assay: Test D; design: key: 0 is no effect; 100 is complete control; conditions: PREEMERGENCE
# [8] = system: bermudagrass (Cynodon dactylon); assay: Test E pre-/postemergence/post directed; design: key: 0 is no injury; 100 is complete control; conditions: POSTEMERGENCE
# Summary of the method: as §1
# [9] = system: itchgrass (Rottboellia exaltata); assay: Test E pre-/postemergence/post directed; design: key: 0 is no injury; 100 is complete control; conditions: PREEMERGENCE
# Summary of the method: as §1
# [10] = system: johnson grass (Sorghum halepense); assay: Test E pre-/postemergence/post directed; design: key: 0 is no injury; 100 is complete control; conditions: PREEMERGENCE
# Summary of the method: as §1
# [11] = system: large crabgrass (Digitaria sanguinalis); assay: Test E pre-/postemergence/post directed; design: key: 0 is no injury; 100 is complete control; conditions: PREEMERGENCE, Rate 32 g/ha
# Summary of the method: as §1
# [12] = system: common ragweed (Ambrosia elatior); assay: Test E pre-/postemergence/post directed; design: key: 0 is no injury; 100 is complete control; conditions: PREEMERGENCE, Rate 32 g/ha
# Summary of the method: as §1
# [13] = system: surinam grass (Brachiaria decumbens); assay: Test E pre-/postemergence/post directed; design: key: 0 is no injury; 100 is complete control; conditions: PREEMERGENCE
# Summary of the method: as §1
# [14] = system: Spanishneedles (Bidens bipinnata); assay: Test E pre-/postemergence/post directed; design: key: 0 is no injury; 100 is complete control; conditions: PREEMERGENCE
# Summary of the method: as §1
# [15] = system: itchgrass (Rottboellia exaltata); assay: Test E pre-/postemergence/post directed; design: key: 0 is no effect; 100 is complete control; conditions: PREEMERGENCE
# Summary of the method: as §1
structure (smiles),measurement,setting,value
Cc1cnc(-c2ccc(C(F)(F)F)cc2)nc1Cc1cccc(OC(F)(F)F)c1 [Compound 15],"Plant response rating, Barnyardgrass",[1]; Rate 32 g/ha,0
same,"Plant response rating, Barnyardgrass",[1]; Rate 64 g/ha,0
same,"Plant response rating, Sugarcane","[2]; PREEMERGENCE, Rate 32 g/ha",0
same,"Plant response rating, Sugarcane","[2]; PREEMERGENCE, Rate 64 g/ha",0
same,"Plant response rating, Sugarcane","[2]; PREEMERGENCE, Rate 125 g/ha",10
same,"Plant response rating, Sugarcane","[2]; PREEMERGENCE, Rate 250 g/ha",10
same,"Plant response rating, Kochia",kochia (Kochia scoparia); Rate 32 g/ha,60
same,"Plant response rating, Kochia",kochia (Kochia scoparia); Rate 64 g/ha,75
same,"Plant response rating, Kochia",kochia (Kochia scoparia); Rate 125 g/ha,95
same,"Plant response rating, Kochia",kochia (Kochia scoparia); Rate 250 g/ha,100
CCc1cnc(-c2ccc(C(F)(F)F)cc2)nc1Cc1cccc(C(F)(F)F)c1 [Compound 22],"Plant response rating, Russian thistle",[3]; Rate 62 g/ha,80
same,"Plant response rating, Russian thistle",[3]; Rate 125 g/ha,80
same,"Plant response rating, Field violet",[4]; Rate 62 g/ha,100
same,"Plant response rating, Field violet",[4]; Rate 125 g/ha,100
same,"Plant response rating, Sunflower",[5]; Rate 62 g/ha,20
same,"Plant response rating, Sunflower",[5]; Rate 125 g/ha,10
same,"Plant response rating, Sunflower",[5]; Rate 250 g/ha,30
same,"Plant response rating, Spring Wheat",[6]; Rate 62 g/ha,0
same,"Plant response rating, Spring Wheat",[6]; Rate 125 g/ha,10
same,"Plant response rating, Spring Wheat",[6]; Rate 250 g/ha,5
same,"Plant response rating, Downy brome",[7]; Rate 125 g/ha,100
Cc1cnc(-n2cnc(C(F)(F)F)c2)nc1Cc1cccc(C(F)(F)F)c1 [Compound 44],"Plant response rating, Bermudagrass",[8]; Rate 125 g/ha,0
same,"Plant response rating, Bermudagrass",[8]; Rate 250 g/ha,0
same,"Plant response rating, Itchgrass",[9]; Rate 32 g/ha,0
same,"Plant response rating, Itchgrass",[9]; Rate 64 g/ha,0
same,"Plant response rating, Johnsongrass",[10]; Rate 64 g/ha,0
same,"Plant response rating, Large crabgrass",[11],0
CCc1cnc(-n2ccc(C(F)(F)F)n2)nc1Cc1cccc(C(F)(F)F)c1 [Compound 46],"Plant response rating, Com. ragweed",[12],0
same,"Plant response rating, Itchgrass",[9]; Rate 32 g/ha,0
same,"Plant response rating, Itchgrass",[9]; Rate 64 g/ha,0
same,"Plant response rating, Johnsongrass",[10]; Rate 32 g/ha,0
same,"Plant response rating, Johnsongrass",[10]; Rate 64 g/ha,0
same,"Plant response rating, Johnsongrass",[10]; Rate 125 g/ha,0
same,"Plant response rating, Johnsongrass",[10]; Rate 250 g/ha,0
same,"Plant response rating, Surinam grass",[13]; Rate 32 g/ha,0
same,"Plant response rating, Surinam grass",[13]; Rate 64 g/ha,0
same,"Plant response rating, Sunflower",[5]; Rate 31 g/ha,10
same,"Plant response rating, Sunflower",[5]; Rate 62 g/ha,30
same,"Plant response rating, Spring Wheat",[6]; Rate 31 g/ha,30
same,"Plant response rating, Spring Wheat",[6]; Rate 62 g/ha,10
Cc1cnc(-n2cnc(C(F)(F)F)n2)nc1Cn1ccc(C(F)(F)F)n1 [Compound 51],"Plant response rating, Sunflower",[5]; Rate 31 g/ha,40
same,"Plant response rating, Sunflower",[5]; Rate 62 g/ha,40
same,"Plant response rating, Spring Wheat",[6]; Rate 31 g/ha,60
same,"Plant response rating, Spring Wheat",[6]; Rate 62 g/ha,70
Cc1cnc(-n2ccc(C(F)(F)F)n2)nc1Cn1ccc(C(F)(F)F)n1 [Compound 52],"Plant response rating, Sunflower",[5]; Rate 31 g/ha,0
same,"Plant response rating, Sunflower",[5]; Rate 62 g/ha,0
same,"Plant response rating, Sunflower",[5]; Rate 125 g/ha,0
same,"Plant response rating, Spring Wheat",[6]; Rate 31 g/ha,60
same,"Plant response rating, Spring Wheat",[6]; Rate 62 g/ha,70
same,"Plant response rating, Spring Wheat",[6]; Rate 125 g/ha,70
Cc1cnc(-n2cnc(C(F)(F)F)n2)nc1C(=O)c1cccc(C(F)(F)F)c1 [Compound 67],"Plant response rating, Spanishneedles",[14]; Rate 32 g/ha,0
same,"Plant response rating, Spanishneedles",[14]; Rate 64 g/ha,0
"Cc1cnc(-c2ccc(C(F)(F)F)cc2)nc1Cc1cccc(C(F)(F)F)c1 [Example 1, 5-methyl-2-[4-(trifluoromethyl)phenyl]-4-[[3-(trifluoromethyl)phenyl]methyl]pyrimidine]","Plant response rating, Russian thistle",[3]; Rate 16 g/ha,40
same,"Plant response rating, Russian thistle",[3]; Rate 62 g/ha,60
same,"Plant response rating, Russian thistle",[3]; Rate 125 g/ha,50
same,"Plant response rating, Field violet",[4]; Rate 16 g/ha,20
same,"Plant response rating, Field violet",[4]; Rate 31 g/ha,100
same,"Plant response rating, Field violet",[4]; Rate 62 g/ha,100
same,"Plant response rating, Field violet",[4]; Rate 125 g/ha,80
same,"Plant response rating, Kochia",kochia (Kochia scoparia); Rate 32 g/ha,95
same,"Plant response rating, Kochia",kochia (Kochia scoparia); Rate 64 g/ha,100
same,"Plant response rating, Kochia",kochia (Kochia scoparia); Rate 125 g/ha,100
same,"Plant response rating, Sunflower",[5]; Rate 31 g/ha,10
same,"Plant response rating, Sunflower",[5]; Rate 62 g/ha,35
same,"Plant response rating, Sunflower",[5]; Rate 125 g/ha,50
same,"Plant response rating, Sunflower",[5]; Rate 250 g/ha,30
same,"Plant response rating, Spring Wheat",[6]; Rate 31 g/ha,0
same,"Plant response rating, Wheat (spring)",[6]; Rate 31 g/ha,10
same,"Plant response rating, Spring Wheat",[6]; Rate 62 g/ha,0
same,"Plant response rating, Wheat (spring)",[6]; Rate 62 g/ha,10
same,"Plant response rating, Spring Wheat",[6]; Rate 125 g/ha,0
same,"Plant response rating, Wheat (spring)",[6]; Rate 125 g/ha,50
same,"Plant response rating, Wheat (spring)",[6]; Rate 250 g/ha,30
same,"Plant response rating, Downy brome",[7]; Rate 250 g/ha,100
"Cc1cnc(-n2ccc(C(F)(F)F)n2)nc1Cc1cccc(C(F)(F)F)c1 [Example 2, 5-methyl-4-[[3-(trifluoromethyl)phenyl]methyl]-2-[3-(trifluoromethyl)-1H-pyrazol-1-yl]pyrimidine]","Plant response rating, Sugarcane","[2]; POSTEMERGENCE, Rate 32 g/ha",20
same,"Plant response rating, Sugarcane","[2]; POSTEMERGENCE, Rate 64 g/ha",20
same,"Plant response rating, Sugarcane","[2]; POSTEMERGENCE, Rate 125 g/ha",20
same,"Plant response rating, Sugarcane","[2]; POSTEMERGENCE, Rate 250 g/ha",25
same,"Plant response rating, Sugarcane","[2]; POSTEMERGENCE, Rate 500 g/ha",25
same,"Plant response rating, Sugarcane","[2]; PREEMERGENCE, Rate 64 g/ha",0
same,"Plant response rating, Itchgrass",[15]; Rate 500 g/ha,100
Cc1cnc(-c2ccc(C(F)(F)F)cc2)nc1Cn1ccc(C(F)(F)F)n1 [compound 9],"Plant response rating, Spanishneedles",[14]; Rate 32 g/ha,0
same,"Plant response rating, Surinam grass",[13]; Rate 32 g/ha,0
same,"Plant response rating, Itchgrass",[15]; Rate 32 g/ha,100
same,"Plant response rating, Itchgrass",[15]; Rate 125 g/ha,100
same,"Plant response rating, Itchgrass",[15]; Rate 250 g/ha,100
